Data as given in patent US7582280B2, “Conjugates of antioxidants with metal chelating ligands for use in diagnostic and therapeutic applications” (Bracco International B.V., priority 2000, dated 2009).
Where a name gives a salt, the structure may show the parent alone.

What was measured:
[1] = target: T1, seronom (HSA preparation) (Homo sapiens, UniProt P02768); test: Fraction bound in aqueous seronom by centrifree micropartition ultrafiltration and ICP [Gd]; type: in vitro ADME; conditions: centrifuged 500 xg 45 min, [Gd] by ICP
Method: After the measurement, the sample in aqueous seronom was placed in a centrifree micropartition device (Millipore, Beverly, Mass.). The device was centrifuged at 500 xg for 45 min in a fixed angle rotor (Beckman Model J2-21M, JA-20 rotor). The solution (0.5 mL) was taken from below the filter (unbound Gd-ligand) for [Gd] ICP measurement. The [Gd] of the uncentrifuged sample was also measured as a control. The Fraction Bound was calculated by the following equation: Fraction Bound=([Gd-ligand]control−[Gd-ligand]unbound)/[Gd-ligand]control. Table 1 details the results of the tests.

[2] = Relaxivity in water (relaxometer); type: physicochemical; conditions: 38° C., IBM PC/20 multispec relaxometer
Source text: (§1) Relaxivity of a paramagnetic material in the presence of a large protein such as human serum albumin may be used to study the ability of the compounds of the present invention to bind the target protein. As such, when a small molecule binds a large protein, the relaxivity of the former will increase because of an increase in its rotational correlation time. This increase in relaxivity may be used not only to measure the extent of binding but also to evaluate the viability of the paramagnetic agent as a blood pool contrast medium.
(§2) The relaxivity of the conjugates 22a and 22b in water as well as in water containing a known amount (20%, v/v) of a HSA preparation, known as, seronom (Table 1) were studied.
(§3) The relaxation time of the samples (22a or 22b) in seronom (T1Gd-ligand in seronom) and in water (T1Gd-ligand in water) were measured at 38° C. using an IBM PC/20 multispec relaxometer. The relaxivity of the samples in seronom (r1Gd-ligand in seronom) and in water (r1Gd-ligand in water) were calculated by the following equations: r1Gd-ligand in seronom=(1/T1Gd-ligand in seronom−1/T1seronom)/[Gd-ligand] r1Gd-ligand in water=(1/T1Gd-ligand in water−1/T1water)/[Gd-ligand],
(§4) where [Gd-ligand] is the concentration of the chelate 22a or 22b, which was determined by ICP^11; T1seronom is the relaxation time for pure aqueous seronom; T1water is the relaxation time for pure water.

[3] = target: T1, seronom (HSA preparation); test: Relaxivity in water containing 20% v/v seronom (HSA preparation); type: physicochemical; conditions: for Relaxivity in aqueous seronom r1Gd-ligand in seronom: 38° C., water containing 20% v/v seronom; for increase in relaxivity in the presence of seronom: seronom versus water
Source text: as §1, §2, §3, §4

[4] = test system: myocardial lesions induced by ischemia-reperfusion; conditions: rats; cited from earlier work

T1 sequence (P02768 25-609): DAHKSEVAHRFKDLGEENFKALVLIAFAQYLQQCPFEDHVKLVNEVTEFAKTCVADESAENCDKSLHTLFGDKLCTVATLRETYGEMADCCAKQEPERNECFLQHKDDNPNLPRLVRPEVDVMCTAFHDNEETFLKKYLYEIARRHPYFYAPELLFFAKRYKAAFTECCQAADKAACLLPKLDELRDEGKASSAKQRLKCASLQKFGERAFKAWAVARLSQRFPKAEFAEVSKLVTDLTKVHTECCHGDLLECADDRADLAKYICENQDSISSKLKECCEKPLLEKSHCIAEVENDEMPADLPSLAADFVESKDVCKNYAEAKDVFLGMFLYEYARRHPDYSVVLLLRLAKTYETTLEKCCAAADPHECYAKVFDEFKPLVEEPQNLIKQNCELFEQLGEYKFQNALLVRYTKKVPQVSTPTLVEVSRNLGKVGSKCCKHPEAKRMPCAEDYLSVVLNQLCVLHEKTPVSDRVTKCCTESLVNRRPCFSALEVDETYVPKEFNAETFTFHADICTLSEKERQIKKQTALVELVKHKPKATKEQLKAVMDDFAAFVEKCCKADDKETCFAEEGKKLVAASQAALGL

| Compound | fraction unbound [1] | Relaxivity in water r1Gd-ligand in water [2] [mM⁻¹ s⁻¹] | Relaxivity in aqueous seronom r1Gd-ligand in seronom [3] [mM⁻¹ s⁻¹] | increase in relaxivity in the presence of seronom [3] [%] | inhibition of myocardial lesions induced by ischemia-reperfusion [4] |
| --- | --- | --- | --- | --- | --- |
| O=C(O)CN1CCN(CC(=O)O)CCN(CC(=O)NCC(=O)NC[C@@H](O)[C@@H]2OC(=O)C(O)=C2O)CCN(CC(=O)O)CC1 [Compound 22a, 1,4,7,10-tetraazacyclododecane-1,4,7-triacetic acid, 10-[2-[[2-[[(2R)-2-[(2S)-2,5-dihydro-3,4-dihydroxy-5-oxo-2-furanyl]-2-hydroxyethyl]amino]-2-oxoethyl]amino]2-oxoethyl]-, gadolinium salt] | 0.912 | 4.83 | 6.38 | 32 | – |
| O=C(O)CN1CCN(CC(=O)O)CCN(CC(=O)NCC(=O)NCC2CCC(C(=O)NC[C@@H](O)[C@@H]3OC(=O)C(O)=C3O)CC2)CCN(CC(=O)O)CC1 (stereo partly drawn) [Compound 22b, 1,4,7,10-tetraazacyclododecane-1,4,7-triacetic acid, 10-[2-[[2-[[[4-[[[(2R)-2-[(2S)-2,5-dihydro-3,4-dihydroxy-5-oxo-2-furanyl]-2-hydroxyethyl]amino]carbonyl]cyclohexyl]methyl]amino]-2-oxoethyl]amino]2-oxoethyl]-, gadolinium salt] | 0.891 | 7.20 | 8.18 | 14 | – |
| CCCCCCCCCCCCCCCCCCOC1=C(O)[C@@H]([C@@H](O)CO)OC1=O [2-O-octadecylascorbic acid] | – | – | – | – | markedly inhibit |
